Where a name gives a salt, the structure may show the parent alone.

As for `CCOCc1cncc(-c2ccc3c(c2)nc(N)c2nc(COCC)n(CC(C)(C)O)c23)c1` [Example 134, 1-[4-Amino-2-ethoxymethyl-7-(5-ethoxymethylpyridin-3-yl)-1H-imidazo[4,5-c]quinolin-1-yl]-2-methylpropan-2-ol], the melting point (as a rule, the temperature of the solid-liquid transition) fell in the range of 156 to 156.5 °C.
The result for `CCOCc1nc2c(N)nc3cc(-c4cccnc4)ccc3c2n1CC(O)CO` (stereo not shown) [Example 162, 3-[4-Amino-2-ethoxymethyl-7-(pyridin-3-yl)-1H-imidazo[4,5-c]quinolin-1-yl]propane-1,2-diol] reads 218 to 220 °C; that for `CCOCc1nc2c(N)nc3cc(-c4ccccc4)ccc3c2n1CCOc1ccccc1` [Example 197, 2-Ethoxymethyl-1-(2-phenoxyethyl)-7-phenyl-1H-imidazo[4,5-c]quinolin-4-amine], 159 to 160 °C.
For the compound `COCCc1nc2c(N)nc3cc(-c4ccccc4)ccc3c2n1CCCCNS(C)(=O)=O` [Example 199, N-{4-[4-Amino-2-(2-methoxyethyl)-7-phenyl-1H-imidazo[4,5-c]quinolin-1-yl]butyl}methanesulfonamide], the melting point was 201 to 202 °C.
Under `COCCc1nc2c(N)nc3cc(-c4cccnc4)ccc3c2n1CC(C)(C)O` [Example 138, 1-[4-Amino-2-(2-methoxyethyl)-7-(pyridin-3-yl)-1H-imidazo[4,5-c]quinolin-1-yl]-2-methylpropan-2-ol] stands 158 to 160 °C; under `CCCOc1ccc(-c2ccc3c(c2)nc(N)c2nc(COCC)n(CC(C)C)c23)cc1` [Example 107, 2-Ethoxymethyl-1-(2-methylpropyl)-7-(4-propoxyphenyl)-1H-imidazo[4,5-c]quinolin-4-amine], 209 to 210 °C; under `CC(C)Cn1cnc2c(N)nc3cc(-c4cncc(CO)c4)ccc3c21` [Example 429, 1-(2-Methylpropyl)-7-(5-hydroxymethylpyridin-3-yl)-1H-imidazo[4,5-c]quinolin-4-amine], 210 to 211 °C.
Consider `CCOCc1nc2c(N)nc3cc(-c4cccnc4)ccc3c2n1CCN1CCN(C(=O)C(C)C)CC1` (hydrate or solvate) [Example 416, 1-(4-{2-[4-Amino-2-ethoxymethyl-7-(pyridin-3-yl)-1H-imidazo[4,5-c]quinolin-1-yl]ethyl}piperazin-1-yl)-2-methylpropan-1-one], for which the melting point fell in the range of 190 to 192 °C.
Consider `CCOCc1nc2c(N)nc3cc(-c4cccnc4)ccc3c2n1CC1CCN(S(C)(=O)=O)CC1` (as salt: HCl) [Example 178, 2-Ethoxymethyl-1-{[1-(methanesulfonyl)piperidin-4-yl]methyl}-7-(pyridin-3-yl)-1H-imidazo[4,5-c]quinolin-4-amine], for which the melting point fell in the range of 254 to 255 °C.
In the case of `COCc1nc2c(N)nc3cc(-c4cnccc4OC)ccc3c2n1CC(C)(C)O` [Example 399, 1-[4-Amino-2-methoxymethyl-7-(4-methoxypyridin-3-yl)-1H-imidazo[4,5-c]quinolin-1-yl]-2-methylpropan-2-ol], the melting point was in the range of 220.5 to 222 °C.
On to `CCOCc1nc2c(N)nc3cc(-c4cccnc4)ccc3c2n1CCN1CCCS1(=O)=O` [Example 389, 1-[2-(1,1-Dioxo-1-isothiazolidin-2-yl)ethyl]-2-ethoxymethyl-7-(pyridin-3-yl)-1H-imidazo[4,5-c]quinolin-4-amine], for which the melting point lay in the range of 244 to 246 °C.
In turn, `CCCc1nc2c(N)nc3cc(-c4cccnc4)ccc3c2n1CC(C)(C)O` [Example 418, 1-[4-Amino-2-propyl-7-(pyridin-3-yl)-1H-imidazo[4,5-c]quinolin-1-yl]-2-methylpropan-2-ol] came in with a melting point of 238.5 to 241 °C.
Compound `CCOCc1nc2c(N)nc3cc(-c4cccc(C#N)c4)ccc3c2n1CC(C)C` [Example 111, 3-(4-Amino-2-ethoxymethyl-1-(2-methylpropyl)-1H-imidazo[4,5-c]quinolin-7-yl)benzonitrile] came in with a melting point of 210 to 211 °C.
Turning to `COCCc1nc2c(N)nc3cc(-c4cccnc4)ccc3c2n1CC(C)C` [Example 145, 2-(2-Methoxyethyl)-1-(2-methylpropyl)-7-(pyridin-3-yl)-1H-imidazo[4,5-c]quinolin-4-amine], the melting point was in the range of 207 to 208 °C.
`CCOCc1nc2c(N)nc3cc(-c4ccc(CO)cc4)ccc3c2n1CCCOC` [Example 166, 2-Ethoxymethyl-1-(3-methoxypropyl)-7-(4-hydroxymethylphenyl)-1H-imidazo[4,5-c]quinolin-4-amine] had a melting point of 228 to 229 °C.
`CCCS(=O)(=O)NCCCCn1c(COCC)nc2c(N)nc3cc(-c4cccnc4)ccc3c21` [Example 376, N-{4-[4-Amino-2-ethoxymethyl-7-(pyridin-3-yl)-1H-imidazo[4,5-c]quinolin-1-yl]butyl}propane-1-sulfonamide] gave a melting point of 178 to 180 °C.
`CCc1nc2c(N)nc3cc(-c4cccnc4)ccc3c2n1CC1CCN(C(=O)C(C)C)CC1` (hydrate or solvate) [Example 407, 1-{4-[4-Amino-2-ethyl-7-(pyridin-3-yl)-1H-imidazo[4,5-c]quinolin-1-ylmethyl]piperidin-1-yl}-2-methylpropan-1-one] registered a melting point of 189 to 191 °C.
Compound `CCCc1nc2c(N)nc3cc(-c4ccccc4)ccc3c2n1CC(C)(C)NS(C)(=O)=O` [Example 200, N-[2-(4-Amino-7-phenyl-2-propyl-1H-imidazo[4,5-c]quinolin-1-yl)-1,1-dimethylethyl]methanesulfonamide] gave a melting point of 135 to 141 °C.
Take `COCCc1nc2c(N)nc3cc(-c4ccccc4)ccc3c2n1CC(C)(C)O` [Example 136, 1-[4-Amino-2-(2-methoxyethyl)-7-phenyl-1H-imidazo[4,5-c]quinolin-1-yl]-2-methylpropan-2-ol]: the melting point lay in the range of 226 to 227 °C.
The result for `CCOCc1nc2c(N)nc3cc(-c4cccnc4)ccc3c2n1CCNC(=O)NC(C)C` [Example 388, N-{2-[4-Amino-2-ethoxymethyl-7-(pyridin-3-yl)-1H-imidazo[4,5-c]quinolin-1-yl]ethyl}-N′-(1-methylethyl)urea] reads 194 to 196 °C; that for `CC(C)Cn1cnc2c(N)nc3cccc(-c4ccccc4)c3c21` [Example 482, 1-(2-Methylpropyl)-9-phenyl-1H-imidazo[4,5-c]quinolin-4-amine], 263 to 265 °C; that for `COCc1nc2c(N)nc3cc(-c4cccc(C(=O)N5CCOCC5)c4)ccc3c2n1CC(C)(C)O` (hydrate or solvate) [Example 401, {3-[4-Amino-1-(2-hydroxy-2-methylpropyl)-2-methoxymethyl-1H-imidazo[4,5-c]quinolin-7-yl]phenyl}morpholin-4-ylmethanone], 176 to 177 °C.
Under `CCOCc1nc2c(N)nc3cc(-c4ccccc4)ccc3c2n1CCCCN1CCCS1(=O)=O` [Example 152, 1-[4-(1,1-Dioxidoisothiazolidin-2-yl)butyl]-2-ethoxymethyl-7-phenyl-1H-imidazo[4,5-c]quinolin-4-amine] stands 167 to 168.5 °C.
The result for `Nc1nc2cc(-c3ccccc3)ccc2c2c1nc(CC1CC1)n2CCOc1ccccc1` [Example 196, 2-Cyclopropylmethyl-1-(2-phenoxyethyl)-7-phenyl-1H-imidazo[4,5-c]quinolin-4-amine] reads 188 to 189 °C; that for `CCOCc1nc2c(N)nc3cc(-n4ccnc4)ccc3c2n1CCCOC` [Example 473, 2-Ethoxymethyl-7-(imidazol-1-yl)-1-(3-methoxypropyl)-1H-imidazo[4,5-c]quinolin-4-amine], 167.5 to 169 °C; that for `COCCc1nc2c(N)nc3ccc(-c4cccnc4)cc3c2n1CCCN1CCCC1=O` [Example 188, 1-{3-[4-Amino-2-(2-methoxyethyl)-8-(pyridin-3-yl)-1H-imidazo[4,5-c]quinolin-1-yl]propyl}pyrrolidin-2-one], 221 to 224 °C.
For `CCOCc1nc2c(N)nc3c(-c4cccnc4)cccc3c2n1CC(C)(C)O` [Example 485, 1-[4-Amino-2-ethoxymethyl-6-(pyridin-3-yl)-1H-imidazo[4,5-c]quinolin-1-yl]-2-methylpropan-2-ol], the melting point fell in the range of 199 to 201 °C.
For `Cc1nc2c(N)nc3cc(-c4ccccc4)ccc3c2n1CCCS(C)(=O)=O` [Example 124, 2-Methyl-1-(3-methanesulfonylpropyl)-7-phenyl-1H-imidazo[4,5-c]quinolin-4-amine], the melting point fell in the range of 203 to 205 °C.
Take `COCCc1nc2c(N)nc3cc(-c4ccncc4)ccc3c2n1CCCN1CCCC1=O` [Example 184, 1-{3-[4-Amino-2-(2-methoxyethyl)-7-(pyridin-4-yl)-1H-imidazo[4,5-c]quinolin-1-yl]propyl}pyrrolidin-2-one]: the melting point was 232 to 235 °C.
As for `CCCOc1ccc(-c2cccc3nc(N)c4ncn(CC(C)C)c4c23)cc1` [Example 483, 1-(2-Methylpropyl)-9-(4-propoxyphenyl)-1H-imidazo[4,5-c]quinolin-4-amine], the melting point lay in the range of 181 to 182 °C.
For `CCOCc1nc2c(N)nc3cc(-c4ccncc4)ccc3c2n1CCCCN1CCCS1(=O)=O` [Example 154, 1-[4-(1,1-Dioxidoisothiazolidin-2-yl)-butyl]-2-ethoxymethyl-7-(pyridin-4-yl)-1H-imidazo[4,5-c]quinolin-4-amine], the melting point was 186 to 187.5 °C.
`CCCOc1ccccc1-c1ccc2c(c1)nc(N)c1nc(COCC)n(CC(C)C)c12` [Example 109, 2-Ethoxymethyl-1-(2-methylpropyl)-7-(2-propoxyphenyl)-1H-imidazo[4,5-c]quinolin-4-amine]: the melting point is 168 to 169 °C.
For the compound `CCOCc1nc2c(N)nc3cc(-c4cncc(CO)c4)ccc3c2n1CCCCN1CCCS1(=O)=O` [Example 155, (5-{4-Amino-1-[4-(1,1-dioxidoisothiazolidin-2-yl)butyl]-2-ethoxymethyl-1H-imidazo[4,5-c]quinolin-7-yl}pyridin-3-yl)methanol], the melting point was in the range of 184.5 to 186 °C.
For the compound `CCCCc1nc2c(N)nc3cc(/C=C/c4ccccc4)ccc3c2n1CC(C)C` [Example 7, 2-Butyl-1-isobutyl-7-[(E)-2-phenylethenyl]-1H-imidazo[4,5-c]quinolin-4-amine], the melting point was in the range of 215 to 216 °C.

Source of the values: patent US7598382B2, “Aryl substituted imidazoquinolines” (Coley Pharmaceutical Group, Inc., priority 2002, dated 2009).
